What all share (assay type): physicochemical
The nature of data set [1]: Compressibility: pressing samples with 1 ton for 60 minutes. The conditions noted are these: for appearance of palettes after pressing: pressed with 1 ton for 60 minutes.
The nature of data set [2]: Chemical and polymorphic stability on exposure to heating and mechanical pressure. As to conditions: when exposed to heating and to mechanical pressure; hydrochloride.
The nature of data set [3]: Wettability.
Data set [4] is described as follows: Hausner ratio (tapped density / poured (bulk) density). An excerpt: These properties enable improve tablet density uniformity, weight variation, homogeneity, die fill characteristics, dimensional control and ejection characteristics.
A short description of data set [5]: Polymorphic stability on exposure to humidity. As to conditions: 100% relative humidity for at least a few moths. An excerpt: Form Lambda doesn't convert to another polymorph when exposed to humidity.

Three molecules from patent US9505744B2, “Solid state forms of vilazodone and vilazodone hydrochloride” (Assia Chemical Industries Ltd., priority 2011, dated 2016) can be followed below.

Structures can show the parent of a compound that is named as a salt.

As to `N#Cc1ccc2[nH]cc(CCCCN3CCN(c4ccc5oc(C(N)=O)cc5c4)CC3)c2c1` [Form Alpha, Vilazodone hydrochloride], the compressibility result in data set [1] (API pressed into a palette) is “excellent compressibility”. Also, in data set [1], the “appearance of palettes after pressing” value is “high structural order and shape without visible lamination on the surface or breaking of the palettes”. For the same molecule, in data set [2], the “chemical and polymorphic stability” value was “chemically and polymorphically stable”. For the same molecule, the degree of wettability entry in data set [3] was “enhanced degree of wettability”.
As to `N#Cc1ccc2[nH]cc(CCCCN3CCN(c4ccc5oc(C(N)=O)cc5c4)CC3)c2c1` [Form Lambda, Vilazodone hydrochloride], the “Hausner ratio (ratio between tapped density and poured (bulk) density)” value in data set [4] is reported as “favorable Hausner ratio”. Further, the “conversion to another polymorph when exposed to humidity” value in data set [5] is “remains unchanged”.
On to `N#Cc1ccc2[nH]cc(CCCCN3CCN(c4ccc5oc(C(N)=O)cc5c4)CC3)c2c1` [Form Mu, Vilazodone hydrochloride], for which the “appearance of palettes after pressing” value in data set [1] is “high structural order and shape without visible lamination on the surface or breaking of the palettes”. In addition, the “chemical and polymorphic stability” value in data set [2] is “high chemical and polymorphic stability”.
